PMC12525431, “Hsp70 Peptides Induce TREM-1-Dependent and TREM-1-Independent Activation of Cytotoxic Lymphocytes” (International Journal of Molecular Sciences, 2025)
“Also recorded” adds a separate entry of the source. Read-outs that look alike come from different tables or passages of the source. Ends that are not written are not given here.

Legend:
K562 cells = assay: Cytotoxicity of activated PBMC/lymphocytes against K562 cells (Cytotox 96); type: cell-based, human
Experimental: (§1) Human leukemic cell line K562 and THP-1 cell line were cultured in RPMI-1640 (Himedia Laboratories Private Limited, Maharashtra, India) and 10% FCS (Cytiva Livescience™, Marlborough, MA, USA). This cell line was obtained from the cell line collection of N. N. Blokhin National Medical Research Center of Oncology of the Ministry of Health of Russia. […] The cells were sorted using sets of magnetic beads for isolation of CD14+, CD16+, CD56+, CD8+, and CD4+ according to the manufacturer’s protocol (all were produced by Thermo Fisher Scientific, Waltham, MA, USA).
(§2) For cytotoxicity tests, cells of the K562 line were cultured in 96-well plates (Guangzhou Jet Bio-Filtration Co., Guangzhou, China) (6 × 10^4 per well) mixed with lymphocytes added at a 20:1 ratio and incubated at 37 °C in a 5% CO2 atmosphere for 3 to 24 h). In the inhibition assays, cells were pre-incubated for 1 h with the LP17 ([…]) (Thermo Fisher Scientific, Boston, MA, USA), abTREM1 (ABclonal, Woburn, MA, USA), anti-NKG2D, anti-granzyme B, caspase 3 inhibitor Ac-IEID-CHO, RIP1 kinase inhibitor necrostatin1, TLR4 inhibitor, anti-MicA, anti-FasL, anti-CD94 antibody (concentration was 20 μg/mL for all inhibitors and all from Thermo Fisher Scientific, Waltham, MA, USA) and then the lymphocytes were added.
(§3) Cytotoxicity was measured using a Cytotox 96 analysis kit (Promega, Madison, WI, USA) after 24 h of incubation in accordance with the manufacturer’s protocol.

ICR mice = assay: LPS-induced sepsis in mice, survival; type: in vivo; conditions: N7.1 120 µg per mouse i.v. 1 h after LPS
Experimental: Female ICR mice weighing 25 ± 1.1 g (7-week-old) were obtained from the Animal Breeding Facility of IBCh RAS (Bioresource Collection supported by the Ministry of Science and Higher Education of the Russian Federation, contract No. 075-15-2025-486). During the experiment, all mice were maintained in a specific pathogen-free (SPF) state under a strict light cycle (lights on at 07:00 h and off at 19:00 h), at 22 ± 2 °C and 50 ± 10% relative humidity. Animals were provided ad libitum access to a standard laboratory autoclavable rodent diet.
Twenty-one mice were used for the present study. The animals were randomly assigned to three groups with seven animals in each group: (1) control, intact animals; (2) intravenous injection of physiological saline (100 μL 0.9% NaCl) as a placebo during LPS-induced sepsis; (3) intravenous injection of peptide N7.1 (120 µg in 100 µL saline per mouse) during LPS-induced sepsis. LPS-induced sepsis was stimulated by an intraperitoneal injection of 0.6 mg lipopolysaccharides from Salmonella enterica Serotype Typhimurium (Sigma-Aldrich Co., St. Louis, MO, USA). Due to the small fluctuation in animal weight, weight-based dosing of LPS was not used. Drug treatment (saline or peptide N7.1) was carried out 1 h after LPS-induced sepsis.

TREM-1 [1] = molecular target: T1, TREM-1 (Homo sapiens, UniProt Q9NP99); assay: Interaction with / dependence on TREM-1 (judged from cytotoxicity blocking and binding experiments); type: cell-based; conditions: for effect on interaction of TREM-1 with its ligands: ligands N7 peptide, HMGB1, full-length Hsp70, judged from PBMC cytotoxicity
T1 construct: causes dissociation of the TREM-1 exocellular domain; made in house
T1 sequence (Q9NP99 21-205 limits assumed): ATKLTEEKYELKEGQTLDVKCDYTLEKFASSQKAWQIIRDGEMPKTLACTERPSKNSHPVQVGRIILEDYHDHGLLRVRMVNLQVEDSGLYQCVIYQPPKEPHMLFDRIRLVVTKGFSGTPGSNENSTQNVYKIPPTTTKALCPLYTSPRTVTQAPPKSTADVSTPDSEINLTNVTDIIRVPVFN
Experimental: as §1, §2, §3

TREM-1 [2] = molecular target: T1, TREM-1; conditions: cited from earlier work
TREM-1 [3] = molecular target: T1, TREM-1; assay: Microscale thermophoresis, binding to TREM-1; conditions: sTREM-1 labeled with Alexa Fluor 488, 30 min in the dark at room temperature, 16 concentrations by sequential dilution, Monolith NT 115, 8% IR laser power, at least three replicates
Experimental: The purified sTREM-1 protein was labeled using an Alexa FluorTM 488 Protein Labeling Kit (Life Technologies Corporation, Eugene, OR, USA) in accordance with the manufacturer’s protocol.
The N7 peptide and TKD (C = 200 nM for all) were incubated for 30 min in the dark at room temperature in 16 different concentrations obtained through sequential dilution, starting with the highest soluble concentration. The samples were transferred to glass capillaries (Monolith NT Capillaries, NanoTemper Technologies GmbH, München, Germany) and then analyzed using a Nano-Temperature Monolith NT 115 device (8% IR laser power). The signal quality was monitored using a NanoTemper Monolith device to detect possible autofluorescence of the ligand, aggregation, or changes in the photobleaching rate. The experiments were carried out in at least three replicates and processed using affinity analysis software (MO Control v.1.6.1, NanoTemper Technologies GmbH, München, Germany).

CD94 receptor = assay: Interaction with CD94 receptor (judged from PBMC cytotoxicity); type: cell-based, human; conditions: concluded from cytotoxicity experiments
Experimental: as §1
For cytotoxicity tests, cells of the K562 line were cultured in 96-well plates (Guangzhou Jet Bio-Filtration Co., Guangzhou, China) (6 × 10^4 per well) mixed with lymphocytes added at a 20:1 ratio and incubated at 37 °C in a 5% CO2 atmosphere for 3 to 24 h). […]
as §3

HLA-negative tumor cells = conditions: cited from earlier work
[4] = 4th day of PBMC incubation with N7, magnetic separation, K562, n = 5
[5] = 6th day of PBMC incubation with N7, magnetic separation, K562, n = 5

SDNQPGVL [N7.1, N-terminal fragment of N7 peptide]
effect on lymphocyte activation by TREM-1 ligands (K562 cells; PBMC pre-incubated with shortened peptide, then N7 peptide, HMGB1 or Hsp70 for 6 days, K562 24 h): blocks the activation of lymphocytes by all the ligands studied | effect in development of sepsis (ICR mice; LPS-induced sepsis in mice): protective effects in the development of sepsis in mice | surviving animals (survival rate) (ICR mice; female ICR mice, n = 7, 0.6 mg S. enterica LPS i.p., observed to 120 h, saline 29%): 86% | effect on interaction of TREM-1 with its ligands (TREM-1 [1]): inhibits the interaction of TREM-1 with its ligands; also recorded: prevent interaction of the TREM-1 receptor with its ligands in vitro | effect on interaction of TREM-1 with its ligands (TREM-1 [1]; listed as SDNQPGVL): competes with other ligands

LQVTDSGLYRCVIYHPP [LP17, reference compound]
TREM-1 signaling inhibition (TREM-1 [2]; ref [24]): TREM-1 signaling inhibitor

CC(C)C[C@H](NC(=O)[C@H](CC(C)C)NC(=O)[C@H](CC(N)=O)NC(=O)[C@H](CC(N)=O)NC(=O)[C@H](CC(=O)O)NC(=O)[C@H](CCCCN)NC(=O)[C@@H](N)[C@@H](C)O)C(=O)NCC(=O)N[C@@H](CCCNC(=N)N)C(=O)N[C@@H](Cc1ccccc1)C(=O)N[C@@H](CCC(=O)O)C(=O)N[C@@H](CC(C)C)C(=O)N[C@@H](CO)C(=O)NCC(=O)O [TKD]
Kd (TREM-1 [3]): 3 µM

PGLYRP1: innate immunity protein PGLYRP1, TREM-1 ligand
TREM-1 ligand (TREM-1 [2]; ref [30],[31],[32],[33]): TREM-1 ligands

CN1C(=O)C(Cc2c[nH]c3ccccc23)NC1=S (centres unmarked) [inhibitor of RIP1 kinase, necrostatin1, reference compound]
effect of inhibitor on cytotoxic signal (K562 cells; CD8+ and CD4+ T lymphocytes activated by N7, 6 days, inhibitor pre-incubated 1 h (20 μg/mL), K562 3 or 24 h, n = 5): prevent the induction of cytotoxic signal

Ac-IEID-aldehyde [caspase 3 inhibitor, reference compound]
effect of inhibitor on activity of NK cells (K562 cells; NK cells activated by N7, inhibitor pre-incubated 1 h (20 μg/mL), K562, n = 5): blocked

actin
TREM-1 ligand (TREM-1 [2]; ref [30],[31],[32],[33]): TREM-1 ligands

SDNQPGVLIQVYEGEK [N7]
cytotoxic activity of CD4+ T lymphocytes (K562 cells; [4]): activated | cytotoxic activity of CD8+ T lymphocytes (K562 cells; [4]): No traces of cytotoxic activity | cytotoxic activity of NK cells (K562 cells; [4]): reached their maximum activity | cytotoxic activity of CD4+ T lymphocytes (K562 cells; [5]): remained | cytotoxic activity of CD8+ T lymphocytes (K562 cells; [5]): appeared | cytotoxic activity of NK cells (K562 cells; [5]): completely disappeared | induction of cytotoxic lymphocytes (K562 cells; PBMC 6 days with synthetic peptide (10^−9 M), MHC-negative K562 cells 24 h, n = 5): cytotoxic lymphocytes appear in the population, killing MHC-negative K562 tumor cells

AMTKDNNLLGR [N9, 11-membered peptide from fraction No. 9; can be considered as a shortened TKD peptide]
lymphocyte populations activated (K562 cells; human PBMC ex vivo with peptide, K562 target cells): activates CD94+ NK cells | interaction with CD94 receptor (CD94 receptor): interact with the CD94 receptor | interaction with TREM-1 (TREM-1 [1]; concluded from LP17 blocking and binding experiments): does not interact with the TREM-1 receptor

Hsp70: recombinant human Hsp70, expressed in Escherichia coli M15
TREM-1 ligand (TREM-1 [2]; ref [19]): ligand of the TREM-1 innate immunity receptor | activation of cytotoxic lymphocytes (HLA-negative tumor cells): activates TREM-1-dependent and TREM-1-independent cytotoxic lymphocytes that kill HLA-negative tumor cells
